We go through three compounds from PMC10931745 (International Journal of Molecular Sciences, 2024).

Assay [1] has as its system human mammary epithelial cell line MCF-10A. Description: MTT assay, toxicity towards normal cells. It counts as cell-based. The settings on record: 72 h. Here is the method: (§1) The cell lines used were purchased from American Type Culture Collection (ATCC, Manassas, VA, USA). Human breast cancer cells MCF-7 and MDA-MB-231, human mammary epithelial cell line MCF-10A, and mouse BALB/3T3 embryonic fibroblasts were cultured as already described by some of us. The murine macrophage cell line RAW 264.7 was maintained in Dulbecco’s Modified Eagle’s Medium (DMEM) high glucose (4.5 g/L) supplemented with 10% Fetal Bovine Serum (FBS), 1% L-glutamine, and 100 units/mL of penicillin/streptomycin. The cell cultures were maintained at the temperature of 37 °C in a humidified atmosphere containing 5% CO2.
(§2) The 3-(4,5-dimethylthiazol-2-yl)-2,5-diphenyl-2H-tetrazolium bromide (MTT) assay (Sigma Aldrich (St. Louis, MO, USA)) was carried out to study the in vitro anticancer activities of the complexes, following the previously reported protocol. The cells were incubated for 72 h with different concentrations of the tested compounds (0.1, 1, 10, 25, 50, 100, and 500 µM) and the IC50 values were calculated from the percent (%) of control using the software GraphPad Prism 9 (GraphPad Software, La Jolla, CA, USA).

Assay [2] relates to Staphylococcus epidermidis (ATCC 14990). In words: MIC/MBC broth dilution. It counts as cell-based. Here is the method: (§3) The bacterial strains used for MIC and MBC value determinations expressed as µg/mL by the broth dilution method, according to CLSI guidelines, were the following:
(§4) -3 Gram-positive: Enterococcus faecalis (ATCC® 19433^TM), Staphylococcus aureus (ATCC® 23235^TM), and Staphylococcus epidermidis (ATCC® 14990™).
(§5) Increasing concentrations of the complexes (50, 70, 100, 150, and 200 µg/mL) were incubated with bacteria plated in 96-well microplates at 37 °C overnight as already reported, and then bacterial growth was checked at a wavelength of 600 nm using a Multiskan spectrophotometer (model Multiskan Ex Microplate; Thermo Scientific, Nyon, Switzerland). MIC or MBC values were obtained by comparing cell density with a positive control (bacterial cells grown in LB medium were added with only the vehicle, DMSO). The results were representative of three independent experiments performed in triplicate. Ampicillin, Gentamicin, and Cephalosporin (Sigma Aldrich A9393) were used as the control for strain sensitivity.

For assay [3], the system named is Staphylococcus aureus (ATCC 23235). Description: MIC/MBC broth dilution. It counts as cell-based. Here is the method: as §3, §4, §5
In assay [4] the test system is Enterococcus faecalis (ATCC 19433). Description: MIC/MBC broth dilution. Type of assay: cell-based. Here is the method:
as §3, §4, §5

The nature of assay [5]: ABTS radical scavenging assay. Type of assay: biochemical. Here is the method: The radical scavenging properties of the complexes on a 2,20-azino-bis(3-ethylbenzothiazoline-6-sulfonate) radical cation (ABTS^+) were evaluated as previously described.
All the complexes were used at different concentrations (5, 10, 25, 50, and 100 µg/mL) and the ABTS radical scavenging activity, measured at 730 nm using a microplate reader, was expressed as inhibition percentages (%IABTS) compared tothe control, according to the following expression:(3) IABTS (%)=ABSCTRL−ABSsample/ABSCTRL∗100 where ABSCTRL and ABSsample are the absorbance at 730 nm in the control and in the presence of samples, respectively.
IC50 values were calculated from the %IABTS using GraphPad Prism 9 software (GraphPad Inc., San Diego, CA, USA). Trolox was employed as a positive control, while caffeine and theophylline were reference compounds.

Assay [6] addresses T1, human topoisomerase I (hTopoI) (Homo sapiens, UniProt P11387).
T1 construct: purchased TopoGEN, Port Orange, FL, USA
T1 sequence (P11387 1-765): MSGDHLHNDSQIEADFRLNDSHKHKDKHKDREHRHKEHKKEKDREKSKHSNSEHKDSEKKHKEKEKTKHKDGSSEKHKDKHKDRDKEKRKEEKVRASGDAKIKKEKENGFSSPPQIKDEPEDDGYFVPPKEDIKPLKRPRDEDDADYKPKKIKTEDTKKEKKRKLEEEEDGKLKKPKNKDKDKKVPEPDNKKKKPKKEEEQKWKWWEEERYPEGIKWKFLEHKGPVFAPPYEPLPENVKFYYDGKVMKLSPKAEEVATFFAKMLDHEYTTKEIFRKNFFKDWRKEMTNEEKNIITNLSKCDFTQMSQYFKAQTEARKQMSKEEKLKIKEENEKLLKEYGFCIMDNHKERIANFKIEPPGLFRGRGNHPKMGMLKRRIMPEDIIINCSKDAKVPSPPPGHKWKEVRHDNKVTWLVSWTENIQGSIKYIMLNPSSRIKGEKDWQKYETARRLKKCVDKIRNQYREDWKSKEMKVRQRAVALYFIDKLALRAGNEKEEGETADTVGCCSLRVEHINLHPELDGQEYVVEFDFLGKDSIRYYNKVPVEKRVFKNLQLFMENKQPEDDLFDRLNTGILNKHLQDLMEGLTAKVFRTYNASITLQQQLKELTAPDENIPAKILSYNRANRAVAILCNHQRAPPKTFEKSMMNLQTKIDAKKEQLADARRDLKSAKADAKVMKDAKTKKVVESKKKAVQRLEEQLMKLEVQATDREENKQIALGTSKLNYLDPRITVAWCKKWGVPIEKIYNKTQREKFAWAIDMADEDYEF
Description: Human topoisomerase I relaxation assay. It counts as biochemical. To be noted: 1 µM, supercoiled pHOT1 DNA. Here is the method: The human topoisomerase I relaxation assay was performed as reported in [86]. Shortly, the recombinant human topo I (TopoGEN, Port Orange, FL, USA) was incubated with the super-coiled pHOT1, in the presence or not of the tested compounds, at the indicated concentrations. The reaction products were then allowed to separate through the agarose gel electrophoresis, and ethidium bromide-stained DNA was visualized under UV light.

Assay [7] has as its system Klebsiella pneumoniae (ATCC 13883). In words: MIC/MBC broth dilution. Type of assay: cell-based. Here is the method: as §3
(§6) -4 Gram-negative: Escherichia coli (ATCC® 25922^TM) and Klebsiella pneumoniae (ATCC® 13883^TM);
as §5

Assay [8] deals with Escherichia coli (ATCC 25922). Description: MIC/MBC broth dilution. It counts as cell-based. Here is the method: as §3, §6, §5
Assay [9] is described as follows: DPPH radical scavenging assay. Type of assay: biochemical. Here is the method:
The radical scavenging properties of the complexes on the 1,1-diphenyl-2-picrylhydrazil (DPPH) radical were evaluated as previously described.
All the complexes were used at different concentrations (10, 25, 50, 100, and 200 µg/mL) and the DPPH radical scavenging activity, measured at 517 nm using a microplate reader, was expressed as inhibition percentages (%IDPPH) compared to the initial concentration of DPPH (control) according to the following expression:(2) IDPPH (%)=ABSCTRL−ABSsample/ABSCTRL∗100 where ABSCTRL and ABSsample are the absorbance at 517 nm in the control and in the presence of samples, respectively.
The obtained IDPPH percentages allowed us to calculate the IC50 values using Graph-Pad Prism 9 software (GraphPad Inc., San Diego, CA, USA). Trolox was employed as a positive control, while caffeine and theophylline were reference compounds.

For a further assay, the system named is MCF-7. In words: MTT cell viability assay. Type of assay: cell-based, human. Here is the method:
as §1, §2

Another assay concerns MDA-MB-231. Description: MTT cell viability assay. It counts as cell-based, human. Here is the method:
as §1, §2

Assay [10] deals with Pseudomonas aeruginosa (ATCC 15442). In words: MIC/MBC broth dilution. Type of assay: cell-based. Here is the method:
as §3
as §5, with “The results were representative of three independent experiments performed in triplicate.” left out

In assay [11] the test system is ROS production in BALB/3T3 fibroblasts. Description: Intracellular ROS detection with DCFH2-DA. Type of assay: cell-based, murine. The settings on record: 25 µM, 24 h pre-treatment. Here is the method: In vitro detection of intracellular ROS on fibroblasts BALB/3T3 using DCFH2-DA The assay to evaluate the in vitro antioxidant activity was carried out using the murine BALB/3T3 fibroblasts that were plated in a white 96 MW and then treated with the complexes at a concentration of 25 µM for 24 h. Menadione (25 µM) was then added for 15 min to induce ROS production. After treatment, the cells were washed with PBS and treated with 25 μM 2′-7′-dichlorofluorescein diacetate (DCFH2-DA, Sigma-Aldrich, St. Louis, MO, USA), and then they were incubated for 40 min at 37 °C and 5% CO2. The probe DCFH2-DA penetrates cells where it is […] into a non-fluorescent form (DCFH2) by endogenous esterases. In the presence of intracellular ROS, non-fluorescent H2DCF is oxidized to the fluorescent 2′,7′-dichlorofluorescein (DCF). Then, the cells were washed with PBS and the fluorescence was detected using a multiplate reader (λex = 485 nm, λem = 535 nm). Based on the obtained fluorescence values, the ROS production inhibition % (IROS) vs. menadione was calculated using the following formula:(1) IROS vs. Menadione (%)=FMen−FSample/FMen∗100 where FMen represents the mean fluorescence obtained after treatment with menadione alone and Fsample represents the mean fluorescence obtained after the co-treatment with the complexes and menadione.

Assay [12] relates to Salmonella typhimurium (ATCC 14028). Description: MIC/MBC broth dilution. It counts as cell-based. Here is the method:
as §3
as §5, with “The results were representative of three independent experiments performed in triplicate.” left out

On to `Cn1c(=O)c2c(ncn2C)n(C)c1=O` [Caffeine, 1,3,7-trimethylxanthine, reference compound], for which the IC50 is over 500 µM in [1] (Homo sapiens, MCF-10A); over 500 µM in assay [5]; over 500 µM in assay [9]; over 500 µM in the assay with MCF-7 (Homo sapiens, MCF7, 72 h); over 500 µM in the assay on MDA-MB-231 (Homo sapiens, MDA-MB-231, 72 h). Also, in assay [2], the “M.I.C. S. epidermidis” value was over 200 µg/mL. For the same compound, the MIC in assay [2] (Staphylococcus epidermidis, ATCC14990, read-out: M.I.C. S. epidermidis) is over 200 µg/mL; in assay [3] (Staphylococcus aureus, ATCC23235, read-out: M.I.C. S. aureus), over 200 µg/mL; in assay [4] (Enterococcus faecalis, ATCC19433, read-out: M.I.C. E. faecalis), over 200 µg/mL; in assay [7] (Klebsiella pneumoniae, ATCC13883, read-out: M.I.C. K. pneumoniae), over 200 µg/mL; in assay [8] (Escherichia coli, ATCC25922) it was over 200 µg/mL; in [10] (Pseudomonas aeruginosa, ATCC15442, read-out: M.I.C. P. aeruginosa) it was over 200 µg/mL. Besides, the “M.I.C. S. aureus” value in [3] is over 200 µg/mL. For the same compound, the “M.I.C. E. faecalis” value in assay [4] was over 200 µg/mL. Also, in assay [5], the “IC50 ABTS scavenging” value is given as “did not show any scavenging capacity”. Further, the “Inhibition of hTopo I supercoil relaxing activity” value in assay [6] was “failed”. The “M.I.C. K. pneumoniae” value in assay [7] is over 200 µg/mL. Further, the “M.I.C. E. coli” value in [8] was over 200 µg/mL. Further, in assay [9], the “IC50 DPPH scavenging” value is “did not show any scavenging capacity”. The “M.I.C. P. aeruginosa” value in [10] was over 200 µg/mL.

For the compound “1,3,7-Trimethylxanthin-9-[(2-hydroxy-2-phenyl)ethyl-8-ylidene]Au(I) Acetate [AuL1OAc]”, the IC50 is over 100 µM in [1]; over 500 µM in assay [5]; over 500 µM in [9]; over 100 µM in the assay on MCF-7 (72 h); over 100 µM in the assay on MDA-MB-231 (72 h). Besides, in [2], the “M.I.C. S. epidermidis” value was over 200 µg/mL. Further, the “M.I.C. S. aureus” value in [3] is reported as over 200 µg/mL. Also, the “M.I.C. E. faecalis” value in [4] is recorded as over 200 µg/mL. The “ROS level reduction vs. menadione” value in assay [11] is about 54%. Moreover, the “M.I.C. K. pneumoniae” value in [7] is reported as over 200 µg/mL. Further, the “M.I.C. E. coli” value in assay [8] was over 200 µg/mL. For the same compound, the “M.I.C. S. typhimurium” value in [12] is listed as over 200 µg/mL. Further, in [10], the “M.I.C. P. aeruginosa” value is given as over 200 µg/mL.

As to `CC(=O)[O][Ag-][c]1n(C)c2c(c(=O)n(C)c(=O)n2C)[n+]1CC(O)c1ccccc1` (racemic) [AgL1OAc, 1,3,7-Trimethylxanthin-9-[(2-hydroxy-2-phenyl)ethyl-8-ylidene]Ag(I) Acetate], in [1], the IC50 was over 100 µM. For the same compound, in [2], the “M.B.C. S. epidermidis” value is on record as over 150 µg/mL and the “M.I.C. S. epidermidis” value is listed as 125 µg/mL. Further, in assay [3], the “M.B.C. S. aureus” value is over 150 µg/mL and the “M.I.C. S. aureus” value worked out at 125 µg/mL. In assay [4], the “M.B.C. E. faecalis” value is over 200 µg/mL and the “M.I.C. E. faecalis” value is recorded as 150 µg/mL. Also, half-maximal inhibition in assay [5] (IC50) required 149.2 ± 0.7 µM. For the same compound, the “ROS level reduction vs. menadione” value in [11] is reported as “about 61%”. Also, in assay [7], the “M.B.C. K. pneumoniae” value was over 150 µg/mL and the “M.I.C. K. pneumoniae” value worked out at 125 µg/mL. In addition, the “M.B.C. E. coli” value in assay [8] is recorded as over 150 µg/mL. Besides, the IC50 in [9] was over 500 µM. In addition, in the assay on MCF-7 (72 h), the IC50 came out at 39.6 ± 0.8 µM. This compound also returned an IC50 with MDA-MB-231 (72 h) of 32.3 ± 0.9 µM. In assay [12], the “M.B.C. S. typhimurium” value is reported as over 200 µg/mL and the “M.I.C. S. typhimurium” value came out at 150 µg/mL. For the same compound, in assay [10], the “M.B.C. P. aeruginosa” value is listed as over 150 µg/mL and the “M.I.C. P. aeruginosa” value came out at 125 µg/mL.
